The values below come from US8933106B2, “2-(4-substituted phenylamino) polysubstituted pyridine compounds as inhibitors of non-nucleoside HIV reverse transcriptase, preparation methods and uses thereof” (Institute of Pharmacology and Toxicology Academy of …, priority 2008, dated 2015).

Molecules are shown by their SMILES. ≈ marks a conversion by molar mass, not a printed value.

One data set concerns HIV-1IIIB virus strain. The data set is described as follows: Anti-HIV activity test (MT-2 cell model), p24 antigen ELISA. It counts as cell-based. The note with it: MT-2 cells; for EC50: Human immunodeficiency virus 1, MT2, HIV-1IIIB, 4th day, p24 antigen; for SI(CC50/EC50): ratio of toxicity CC50 value to activity EC50 value. As for the experimental part: Please refer to the document (Jiang, S., et al. Antimicrob. Agents Chemother. 2004, 48, 4349-4359). In a 96-pore cell culture plate, 50 μl of different concentrations of compound solutions were respectively mixed with equal-volume of HIV-1IIIB virus strain (100 TCID50), and incubated at 37° C. for 30 min, and then 100 μl MT-2 cell (1×10^5/mL, RPIM 1640 culture medium containing 10% serum) was added, and mixed homogenously, followed by incubation at 37° C. overnight. On the second day, 150 μl of the supernatant was sucked out, and equal-volume of fresh culture medium was replenished, followed by further incubation at 37° C. for 3 days. On the 4th day, cytopathic effect (CPE) was recorded. Thereafter, 100 μl of culture supernatant was sucked out, virus particles were split using 5% Triton X-100, and p24 antigen therein was tested by using ELISA assay. Briefly, a ELISA plate was coated with HIVIG (2 μg/mL), and blocked with 1% fat-free milk, then a virus lysate was added therein, followed by incubation at 37° C. for 60 min. After fully washing the plate, anti-p24 monoclonal antibody-183-12H-5C, biotin-labeled goat antimouse antibody and […]-labeled horseradish peroxidase were added in sequence. Then, after developing with TMB, OD was tested at 450 nm. The 50% effective concentration (EC50) of the compound was calculated using CalcuSyn software.
In general terms: In an ELISA, binding on a coated surface is turned into a signal by an enzyme label.

The nature of data set [1]: Cytotoxicity test of the compound (MT-2 cells, XTT). It counts as cell-based. The note with it: human, 4th day. The procedure:
Please refer to the document (Jiang, S., et al. Antimicrob. Agents Chemother. 2004, 48, 4349-4359). In a 96-pore cell culture plate, 50 μl of different concentrations of compound solutions were respectively mixed with equal-volume of PBS, and incubated at 37° C. for 30 min, and then 100 μl MT-2 (or H9) cells (1×10^5/mL, RPIM 1640 culture medium containing 10% serum) was added, and mixed homogenously, followed by incubation at 37° C. overnight. On the second day, 150 μl of the supernatant was sucked out, and equal-volume of fresh culture medium was replenished, followed by further incubation at 37° C. for 3 days. On the 4th day, 50 μl of a XTT solution (1 mg/mL) containing PMS as freshly prepared was added. After 4 h, OD at 450 nm was tested. The 50% cytotoxicity concentration (CC50) of the compound was calculated using CalcuSyn software.
Background: Formazan colour is commonly taken as a measure of viable cells.

In turn, `C#Cc1cc(C)c(Oc2ccc([N+](=O)[O-])c(Nc3ccc(C#N)cc3)n2)c(C)c1` [Compound I-22, 2-(4-cyanophenylamino)-6-(2,6-dimethyl-4-ethynylphenoxy)-3-nitropyridine] gave a melting point of 186 to 188 °C. In the data set on HIV-1IIIB virus strain, the EC50 amounted to 0.26 µg/mL (≈ 0.676 µM) and the “SI(CC50/EC50)” value is reported as 256. Further, in data set [1], the midpoint of cytotoxicity, the CC50 at 4 days, lay at 66.7 µg/mL (≈ 173 µM).

Compound `N#CC=Cc1cc(Br)c(Oc2ccc([N+](=O)[O-])c(Nc3ccc(C#N)cc3)n2)c(Br)c1` [Compound I-30, 2-(4-cyanophenylamino)-6-(2,6-dibromo-4-cyanovinylphenoxy)-3-nitropyridine] registered a melting point of 223 to 226 °C. In the data set with HIV-1IIIB virus strain, the EC50 was 0.045 µg/mL (≈ 0.0832 µM) and the “SI(CC50/EC50)” value is listed as 551. Further, in data set [1], the cytotoxic concentration (CC50) at 4 days came out at 24.8 µg/mL (≈ 45.8 µM).

The compound `N#Cc1ccc(Nc2nc(Oc3c(Br)cc(C=O)cc3Br)ccc2[N+](=O)[O-])cc1` [Compound I-27, 2-(4-cyanophenylamino)-6-(2,6-dibromo-4-formylphenoxy)-3-nitropyridine] yielded a melting point of 218 to 220 °C. For the same compound, the midpoint of the response in the data set with HIV-1IIIB virus strain, the EC50, lay at 0.152 µg/mL (≈ 0.293 µM). Moreover, the midpoint of cytotoxicity in data set [1], the CC50 at 4 days, lay at 0.78 µg/mL (≈ 1.51 µM).

With `Cc1cc(C#CC2CC2)cc(C)c1Oc1ccc([N+](=O)[O-])c(Nc2ccc(C#N)cc2)n1` [Compound I-20, 2-(4-cyanophenylamino)-6-(2,6-dimethyl-4-(cyclopropylethynyl)phenoxy)-3-nitropyridine], the melting point lay in the range of 188 to 192 °C.

Turning to `Cc1cc(C#N)cc(C)c1Oc1ccc(N)c(Nc2ccc(C#N)cc2)n1` [Compound I-6, 3-amino-2-(4-cyanophenylamino)-6-(2,6-dimethyl-4-cyanophenoxy)pyridine], in the data set with HIV-1IIIB virus strain, it took 0.0005 µg/mL (≈ 0.00141 µM) to reach a half-maximal effect (EC50) and the “SI(CC50/EC50)” value is 22,560. This compound also displayed a half-maximal cytotoxic concentration (CC50) at 4 days in data set [1] of 11.3 µg/mL (≈ 31.7 µM).

Compound `Cc1cc(N)cc(C)c1Oc1ccc(N)c(Nc2ccc(C#N)cc2)n1` [Compound I-24, 3-amino-2-(4-cyanophenylamino)-6-(2,6-dimethyl-4-aminophenoxy)pyridine] registered a melting point of 195 to 198 °C.

Consider `Cc1cc(C=CC#N)cc(C)c1Oc1ccc([N+](=O)[O-])c(Nc2ccc(C#N)cc2)n1` [Compound I-5, 2-(4-cyanophenylamino)-6-(2,6-dimethyl-4-cyanovinylphenoxy)-3-nitropyridine], for which, in the data set with HIV-1IIIB virus strain, a half-maximal effect (EC50) was put at 0.005 µg/mL (≈ 0.0122 µM) and the “SI(CC50/EC50)” value is 4,956. Also, in data set [1], the half-maximal cytotoxic concentration (CC50) at 4 days was found to be 24.8 µg/mL (≈ 60.2 µM).

`Cc1cc(CNC2CC2)cc(C)c1Oc1ccc([N+](=O)[O-])c(Nc2ccc(C#N)cc2)n1` [Compound I-15, 2-(4-cyanophenylamino)-6-(2,6-dimethyl-4-(2-cyclopropylaminomethyl)phenoxy)-3-nitropyridine]: the melting point lay within 175 to 177 °C.

`C=CCc1cc(C)c(Oc2ccc(N)c(Nc3ccc(C#N)cc3)n2)c(C)c1` [Compound I-13, 3-amino-2-(4-cyanophenylamino)-6-(2,6-dimethyl-4-allylphenoxy)pyridine] displayed a melting point of 150 to 152 °C. In the data set with HIV-1IIIB virus strain, the EC50 is 0.09 µg/mL (≈ 0.243 µM) and the “SI(CC50/EC50)” value is reported as 24. This compound had a CC50 at 4 days in data set [1] of 2.13 µg/mL (≈ 5.75 µM).

As for `Cc1cc(CO)cc(C)c1Oc1ccc([N+](=O)[O-])c(Nc2ccc(C#N)cc2)n1` [Compound I-8, 2-(4-cyanophenylamino)-6-(2,6-dimethyl-4-hydroxymethylphenoxy)-3-nitropyridine], in the data set on HIV-1IIIB virus strain, a half-maximal effect (EC50) was put at 0.075 µg/mL (≈ 0.192 µM) and the “SI(CC50/EC50)” value is reported as 602. Besides, the half-maximal cytotoxic concentration (CC50) at 4 days in data set [1] is 45.2 µg/mL (≈ 116 µM).

Turning to `Cc1cc(C=CC#N)cc(C)c1Oc1ccc(N)c(Nc2ccc(C#N)cc2)n1` [Compound I-10, 3-amino-2-(4-cyanophenylamino)-6-(2,6-dimethyl-4-cyanovinylphenoxy)pyridine], in the data set with HIV-1IIIB virus strain, a half-maximal response (EC50) required 0.0042 µg/mL (≈ 0.011 µM) and the “SI(CC50/EC50)” value was 6,656. Further, in data set [1], the CC50 at 4 days is 27.9 µg/mL (≈ 73.3 µM).

As for `Cc1cc(I)cc(C)c1Oc1ccc([N+](=O)[O-])c(Nc2ccc(C#N)cc2)n1` [Compound I-16, 2-(4-cyanophenylamino)-6-(2,6-dimethyl-4-iodophenoxy)-3-nitropyridine], the melting point is 162 to 165 °C. For the same compound, in the data set with HIV-1IIIB virus strain, the midpoint of the response, the EC50, lay at 1.18 µg/mL (≈ 2.43 µM) and the “SI(CC50/EC50)” value is given as 61. The compound further returned a CC50 at 4 days in data set [1] of 72.2 µg/mL (≈ 148 µM).

The compound `Cc1cc(C#CC2CC2)cc(C)c1Oc1ccc(N)c(Nc2ccc(C#N)cc2)n1` [Compound I-21, 3-amino-2-(4-cyanophenylamino)-6-(2,6-dimethyl-4-(cyclopropylethynyl)phenoxy)pyridine] came in with a melting point of 82 to 85 °C.

Consider `Cc1cc(Br)cc(C)c1Oc1ccc(N)c(Nc2ccc(C#N)cc2)n1` [Compound I-12, 3-amino-2-(4-cyanophenylamino)-6-(2,6-dimethyl-4-bromophenoxy)pyridine], for which the melting point lay within 190 to 193 °C. In addition, in the data set with HIV-1IIIB virus strain, a half-maximal response (EC50) required 0.021 µg/mL (≈ 0.0513 µM) and the “SI(CC50/EC50)” value is 259. The same compound yielded a CC50 at 4 days in data set [1] of 5.44 µg/mL (≈ 13.3 µM).

As for `Cc1cc(I)cc(C)c1Oc1ccc(N)c(Nc2ccc(C#N)cc2)n1` [Compound I-25, 3-amino-2-(4-cyanophenylamino)-6-(2,6-dimethyl-4-iodophenoxy)pyridine], in the data set with HIV-1IIIB virus strain, the concentration for a half-maximal effect (EC50) turned out to be 0.036 µg/mL (≈ 0.0789 µM) and the “SI(CC50/EC50)” value is reported as 298. The CC50 at 4 days in data set [1] amounted to 10.7 µg/mL (≈ 23.5 µM).

Take `N#Cc1ccc(Nc2nc(Oc3c(Br)cc(CO)cc3Br)ccc2[N+](=O)[O-])cc1` [Compound I-28, 2-(4-cyanophenylamino)-6-(2,6-dibromo-4-hydroxymethylphenoxy)-3-nitropyridine]: the melting point was in the range of 209 to 213 °C. In the data set with HIV-1IIIB virus strain, the EC50 worked out at 0.253 µg/mL (≈ 0.486 µM) and the “SI(CC50/EC50)” value is on record as 145. In data set [1], this compound returned a 50% cytotoxic concentration (CC50) at 4 days of 36.3 µg/mL (≈ 69.8 µM).

Turning to `Cc1cc(C)c(Oc2ccc([N+](=O)[O-])c(Nc3ccc(C#N)cc3)n2)c(C)c1` [Compound I-3, 2-(4-cyanophenylamino)-6-(2,4,6-trimethylphenoxy)-3-nitropyridine], in the data set with HIV-1IIIB virus strain, the EC50 came out at 0.118 µg/mL (≈ 0.315 µM) and the “SI(CC50/EC50)” value was 4,264. This compound also returned a CC50 at 4 days in data set [1] of 503 µg/mL (≈ 1340 µM).

`C#Cc1cc(C)c(Oc2ccc(N)c(Nc3ccc(C#N)cc3)n2)c(C)c1` [Compound I-23, 3-amino-2-(4-cyanophenylamino)-6-(2,6-dimethyl-4-ethynylphenoxy)pyridine]: the melting point fell in the range of 79 to 82 °C. In addition, in the data set with HIV-1IIIB virus strain, a half-maximal effect (EC50) was put at 0.15 µg/mL (≈ 0.423 µM) and the “SI(CC50/EC50)” value is given as 19. Besides, in data set [1], the half-maximal cytotoxic concentration (CC50) at 4 days was determined as 2.92 µg/mL (≈ 8.24 µM).

`Cc1cc(C#CC(C)(C)O)cc(C)c1Oc1ccc([N+](=O)[O-])c(Nc2ccc(C#N)cc2)n1` [Compound I-18, 2-(4-cyanophenylamino)-6-(2,6-dimethyl-4-(3-methyl-3-hydroxy-1-butynyl)phenoxy)-3-nitropyridine]: the melting point fell in the range of 114 to 116 °C.

In the case of `C=CCc1cc(C)c(Oc2ccc([N+](=O)[O-])c(Nc3ccc(C#N)cc3)n2)c(C)c1` [Compound I-9, 2-(4-cyanophenylamino)-6-(2,6-dimethyl-4-allylphenoxy)-3-nitropyridine], in the data set on HIV-1IIIB virus strain, a half-maximal effect (EC50) was put at 0.109 µg/mL (≈ 0.272 µM) and the “SI(CC50/EC50)” value is on record as >917. For the same compound, the 50% cytotoxic concentration (CC50) at 4 days in data set [1] is > 100 µg/mL.

As to `Cc1cc([N+](=O)[O-])cc(C)c1Oc1ccc([N+](=O)[O-])c(Nc2ccc(C#N)cc2)n1`, the melting point was in the range of 250 to 252 °C.

`Cc1cc(C(O)C[N+](=O)[O-])cc(C)c1Oc1ccc([N+](=O)[O-])c(Nc2ccc(C#N)cc2)n1` (stereo not shown) [Compound I-14, 2-(4-cyanophenylamino)-6-(2,6-dimethyl-4-(1-hydroxy-2-nitroethyl)phenoxy)-3-nitropyridine]: the melting point was in the range of 230 to 234 °C. In addition, in the data set with HIV-1IIIB virus strain, the EC50 was 0.77 µg/mL (≈ 1.71 µM) and the “SI(CC50/EC50)” value was 16. The compound further displayed a CC50 at 4 days in data set [1] of 12.2 µg/mL (≈ 27 µM).

With `N#Cc1ccc(Nc2nc(Oc3c(Br)cc(Br)cc3Br)ccc2[N+](=O)[O-])cc1` [Compound I-26, 2-(4-cyanophenylamino)-6-(2,4,6-tribromophenoxy)-3-nitropyridine], the melting point lay within 188 to 191 °C. Besides, in the data set on HIV-1IIIB virus strain, the midpoint of the response, the EC50, lay at 0.179 µg/mL (≈ 0.315 µM) and the “SI(CC50/EC50)” value is listed as 151. The 50% cytotoxic concentration (CC50) at 4 days in data set [1] was found to be 27 µg/mL (≈ 47.4 µM).

`N#Cc1ccc(Nc2nc(Oc3c(F)cccc3F)ccc2[N+](=O)[O-])cc1` [Compound I-29, 2-(4-cyanophenylamino)-6-(2,6-difluorophenoxy)-3-nitropyridine] registered a melting point of 234 to 236 °C. Moreover, in the data set on HIV-1IIIB virus strain, a half-maximal response (EC50) required 15.9 µg/mL (≈ 43.2 µM) and the “SI(CC50/EC50)” value is on record as 2. Besides, half-maximal cytotoxicity in data set [1] (CC50 at 4 days) was put at 39.7 µg/mL (≈ 108 µM).

A word on the EC50: it is the concentration at which the effect is half-maximal. Read a low EC50 as higher potency in that assay. A word on the CC50: it is the concentration that lowers cell viability or growth by half. As a reminder, the melting point is the temperature of the solid-liquid transition.
